Data set [1] deals with T1, CD44-HABD (Homo sapiens, UniProt P16070).
T1 construct: DNA encoding CD44-HABD (amino acid residues 20-178) was synthesized and cloned into expression vector pET19b; made in house
The data set is described as follows: Filter binding assay of biotinylated XAs with CD44-HABD. As for the experimental part: Filter binding assay. The equilibrium binding constants of selected XAs for CD44-HABD were determined by a filter binding assay. The biotinylated XAs (1 nM) were incubated with varying concentrations of CD44-HABD in 50 μL of 20 mM Tris, pH 8.0, 150 mM NaCl for 40 min at room temperature and then transferred to a 96-well dot-blot apparatus and filtered under vacuum onto nitrocellulose membranes, which retain the CD44-HABD along with any bound XAs. The amount of biotinylated XA retained at each spot was determined by chemiluminescent detection using the Chemiluminescent Nucleic Acid Detection Module (Thermo Scientific) following the manufacturer's instructions. The chemiluminescent signals were collected on a Chemimager (Alpha Innotech). Image analysis and quantification of spot intensities were performed using ImageJ (version 1.42q). Binding analysis was based on the spot intensities on the nitrocellulose membranes with subtraction of background spot intensity due to the buffer effect from all the data points. Saturation binding curves were generated by using GraphPad Prism with curve fits assuming a single binding site. The NH2 XA column lists KDs for XAs where X=amino-dU. The ADDA XA column lists KDs for XAs where X=ADDA-dU.
The equilibrium binding constants of the small constructs were determined by the filter binding assay. The derived equilibrium binding constants of the above small XA constructs are shown below in Table 4.

Data set [2] addresses T1, CD44-HABD. The data set is described as follows: 1H-NMR titration of CD44-HABD with ADDA (equilibrium dissociation constant). Type of data set: binding. As to the method:
ADDA binding to CD44-HABD. CD44-HABD was prepared in the NMR buffer (20 mM Tris, 50 mM NaCl, 5% (v/v) D2O, pH 6.7). ADDA was dissolved in DMSO (1.4 M) as stock solution. The ADDA sample for NMR was prepared in the same buffer (20 mM Tris, 50 mM NaCl, 1.25 mM ADDA, 0.1% (v/v) DMSO, 5% (v/v) D2O, pH 6.7). CD44-HABD (27 μM) with various concentration of ADDA (14 μM, 25 μM, 50 μM, 250 μM and 1250 μM) was also prepared in the same buffer. The ^1H-NMR spectra of CD44-HABD only, ADDA only and CD44-HABD in presence of ADDA were obtained.
The equilibrium dissociation constant of ADDA to CD44-HABD was determined by ^1H-NMR.

Data set [3] has as its system human pancreatic cancer xenograph. The data set is described as follows: Near infrared imaging of IR800dye-labeled thioaptamer in mouse xenograft. Conditions: mouse with human pancreatic cancer xenograph. Type of data set: in vivo. The text has this: Use of Thioaptamers in vivo.
Background: In xenograft studies the graft and the host belong to different species.

Where [4] appears, read: permonothioated full-length XA, X = amino-dU, read-out: KD (nM) NH2 XA.
The mark [5] stands for this setting: permonothioated full-length XA, X = ADDA-dU, read-out: KD (nM) ADDA XA.

Values joined by “and” are separate entries in the source; they are usually repeats but may differ in a detail not shown here. Identical values can stand only once. Oligonucleotides are written 5' to 3', each unit as a sugar letter and its base; * is a phosphorothioate linkage, no mark a phosphodiester; rarer units and linkages stand in square brackets, end groups in braces. Plain capitals give the bases only. d = 2'-deoxy (DNA)

T1 sequence (P16070 20-178): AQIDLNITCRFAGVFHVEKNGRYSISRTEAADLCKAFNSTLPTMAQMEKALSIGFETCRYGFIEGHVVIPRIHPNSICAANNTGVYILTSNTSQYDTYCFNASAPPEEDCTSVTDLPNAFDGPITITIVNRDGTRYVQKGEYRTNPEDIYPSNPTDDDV

Turning to “XA10: permonothioated X-aptamer to CD44-HABD, SEQ ID NO 21; X = amino-dU or ADDA-dU (DNA dT*dT*dG*dG*dG*dG*dC*dC*dC*dA*dG*dT*dA*dG*dG*dT*dA*dA*dC*dC*dG*dG*dG*dG*dA*dC*dA*dG; further chemistry not given here)”, in the data set with CD44-HABD [1] (setting [4]), the Kd was found to be 450 ± 180 nM.
“1 (DNA AAGGGAACCAAGGACACTAC; DNA, backbone not given here; tested as phosphodiester and as thiophosphate form) [Motif 1]”: the Kd stood at 10.3 ± 1.3 nM in the data set with CD44-HABD [1] (truncated motif without X, phosphate backbone, read-out: Dissociation constant (nM), phosphoaptamer form) and 15 ± 2 nM in the data set with CD44-HABD [1] (truncated motif without X, thiophosphate backbone, read-out: Dissociation constant (nM), thioaptamer form).
Turning to “XA12: permonothioated X-aptamer to CD44-HABD, SEQ ID NO 23; X = amino-dU or ADDA-dU (DNA NNAAGGCCNGNTAAANGATATCCACTA; phosphorothioate; amino-dU or ADDA-dU modified; (1)..(2) n = X = 5-(aminoethyl-3-acrylimido)- deoxyuridine; (9)..(9) n = X = 5-(aminoethyl-3-acrylimido)- deoxyuridine; (11)..(11) n = X = 5-(aminoethyl-3-acrylimido)- deoxyuridine; (16)..(16) n = X = 5-(aminoethyl-3-acrylimido)- deoxyuridine)”, the Kd turned out to be 879 ± 135 nM in the data set with CD44-HABD [1] (setting [5]) and 963 ± 183 nM with CD44-HABD [1] (setting [4]).
The like results for “XA13: permonothioated X-aptamer to CD44-HABD, SEQ ID NO 24; X = amino-dU or ADDA-dU (DNA NGCAGATCTGCAAGGGAAAGATAGACACAG; phosphorothioate; amino-dU or ADDA-dU modified; (1)..(1) n = X = 5-(aminoethyl-3-acrylimido)- deoxyuridine)” were, in that order, 312 ± 68.5 nM and 1380 ± 237 nM.
“XA7: permonothioated X-aptamer to CD44-HABD, SEQ ID NO 18; X = amino-dU or ADDA-dU (DNA NNAAGACGCANTAANGAACCAAGGACGTGA; phosphorothioate; amino-dU or ADDA-dU modified; (1)..(2) n = X = 5-(aminoethyl-3-acrylimido)- deoxyuridine; (11)..(11) n = X = 5-(aminoethyl-3-acrylimido)- deoxyuridine; (15)..(15) n = X = 5-(aminoethyl-3-acrylimido)- deoxyuridine)”: the Kd amounted to 116 ± 20.7 nM with CD44-HABD [1] (setting [5]) and 306 ± 69.3 nM with CD44-HABD [1] (setting [4]).
Taken in the same sequence, the figures for “XA8: permonothioated X-aptamer to CD44-HABD, SEQ ID NO 19; X = amino-dU or ADDA-dU (DNA CCAAGATCNGNAAGGTANCCGGGGACNG; phosphorothioate; amino-dU or ADDA-dU modified; (9)..(9) n = X = 5-(aminoethyl-3-acrylimido)- deoxyuridine; (11)..(11) n = X = 5-(aminoethyl-3-acrylimido)- deoxyuridine; (18)..(18) n = X = 5-(aminoethyl-3-acrylimido)- deoxyuridine; (27)..(27) n = X = 5-(aminoethyl-3-acrylimido)- deoxyuridine)” were 274 ± 54.3 nM and 463 ± 82.4 nM.
As to `CC(=O)N[C@H]1[C@H]([C@H](O)[C@H](O)CO)OC(C(=O)O)=C[C@@H]1O` [ADDA, N-acetyl-2,3-dehydro-2-deoxyneuraminic acid], the Kd on CD44-HABD [2] (1H-NMR peak 7.7925 ppm, read-out: KD) amounted to 3080 µM; on CD44-HABD [2] (1H-NMR peak 7.9025 ppm, read-out: KD), 1440 µM; on CD44-HABD [2] (1H-NMR peak 7.9225 ppm, read-out: KD) it was 1720 µM; at CD44-HABD [2] (1H-NMR peak 7.9375 ppm, read-out: KD) it was 1920 µM; on CD44-HABD [2] (1H-NMR peak 7.9575 ppm, read-out: KD), 1710 µM; on CD44-HABD [2] (1H-NMR peak 7.9925 ppm, read-out: KD), 3430 µM. The Kd on CD44-HABD [2] (average over the six selected 1H-NMR peaks, read-out: Average KD) was 2220 µM and ~2000 µM.
Regarding “XA2: permonothioated X-aptamer to CD44-HABD, SEQ ID NO 13; X = amino-dU or ADDA-dU (DNA NGCAGATCTGCAAGGGAACCAAGGACACTA; phosphorothioate; amino-dU or ADDA-dU modified; (1)..(1) n = X = 5-(aminoethyl-3-acrylimido)- deoxyuridine)”, the Kd with CD44-HABD [1] (setting [5]) was 78.3 ± 18.1 nM; in the data set with CD44-HABD [1] (setting [4]), 55.5 ± 13.4 nM.
Taken in the same sequence, the figures for “XA6: permonothioated X-aptamer to CD44-HABD, SEQ ID NO 17; X = amino-dU or ADDA-dU (DNA TTGGGGCCTGCAAGACGACCNAAACGANGA; phosphorothioate; amino-dU or ADDA-dU modified; (21)..(21) n = X = 5-(aminoethyl-3-acrylimido)- deoxyuridine; (28)..(28) n = X = 5-(aminoethyl-3-acrylimido)- deoxyuridine)” were 150 ± 25.7 nM and 214 ± 31.6 nM.
The like results for “XA3: permonothioated X-aptamer to CD44-HABD, SEQ ID NO 14; X = amino-dU or ADDA-dU (DNA CCAAGGCCTGCAAGGGAACCAAGTCCANTA; phosphorothioate; amino-dU or ADDA-dU modified; (28)..(28) n = X = 5-(aminoethyl-3-acrylimido)- deoxyuridine)” were, in that order, 140 ± 16.8 nM and 111 ± 18.5 nM.
Take “XA11: permonothioated X-aptamer to CD44-HABD, SEQ ID NO 22; X = amino-dU or ADDA-dU (DNA TTGGGACGTAAGTAANGGGGGACANGA; phosphorothioate; amino-dU or ADDA-dU modified; (16)..(16) n = X = 5-(aminoethyl-3-acrylimido)- deoxyuridine; (25)..(25) n = X = 5-(aminoethyl-3-acrylimido)- deoxyuridine)”: the Kd was determined as 1090 ± 390 nM with CD44-HABD [1] (setting [5]) and 846 ± 151 nM with CD44-HABD [1] (setting [4]).

B1: ESTA-1: ESTA-1 thioaptamer sequence (SEQ. ID. 32), IRdye 800-labelled, gold nanoparticle (FIG. 16) (nucleic acid)
DNA: CGCTCGGATCGATAAGCTTCGATCCCACTCTCCCGTTCACTTCTCCTCACGTCACGGATCCTCTAGAGCACTG
modifications: Thioaptamer, thioate positions not given here, IRdye 800 label, gold nanoparticle conjugate
B1: the “accumulation in tumor (near infrared image)” value in data set [3] is given as “accumulates in the tumor”.

These data come from US9988623B2, “Methods of X-aptamer generation and compositions thereof” (Board of Regents of the University of Texas System, priority 2012, dated 2018).
